From PMC11887051, “Discovery of ONO-2920632 (VU6011887): A Highly Selective and CNS Penetrant TREK-2 (TWIK-Related K+ Channel 2) Preferring Activator In Vivo Tool Compound” (ACS Chemical Neuroscience, 2025)

Columns and labels:
[1] = rat PO PK study; type: in vivo; settings: male, Sprague-Dawley, 3 mg/kg PO
Description: Plasma and brain tissue samples originating from in vivo studies were analyzed by electrospray ionization using an AB Sciex Q-TRAP 5500 (Foster City, CA) that was coupled to a Shimadzu LC-20AD pump (Columbia, MD) and a Leap Technologies CTC PAL auto-sampler (Carrboro, NC). Analytes were separated by gradient elution using a C18 column (3 x 50 mm, 3 mm; Fortis Technologies Ltd, Cheshire, UK) that was thermostated at 40 °C. HPLC mobile phase A was 0.1% formic acid in water (pH unadjusted); mobile phase B was 0.1% formic acid in acetonitrile (pH […]
min, with an isocratic hold for 0.5 min, before transitioning to 10% B over 0.05 min. The column was re-equilibrated (1 min) before the next sample injection. The total run time was 2.55 min, and the HPLC flow rate was 0.5 ml/min. The source temperature was set at 500 °C, and mass spectral analyses were performed using a Turbo-Ion spray source in positive ionization mode (5.0-kV spray voltage) and using multiple-reaction monitoring of transitions specific for the analytes. All data were analyzed using AB Sciex Analyst 1.5.1 software.
Brain plasma concentration ratio (Kp) was calculated by dividing brain concentration by plasma concentration for each animal. Unbound brain to unbound plasma concentration ratio (Kp,uu) is calculated using the following formula: Kp,uu = (Brain ng/g x brain fu)/(plasma ng/ml x plasma fu).
For determination of the plasma concentration-time profile, compounds were formulated in methyl cellulose and administered as a 3 mg/kg PO dose to male C57BL/6 mouse or SD rat (n = 2). For the same determination, compounds were formulated in HP-β-CD and administered as a 0.1 mg/kg IV dose to male beagle dog (n = 2).
Plasma samples originating from in vivo studies were analyzed by electrospray ionization using a Q-TRAP 5500 (AB Sciex) that was coupled to a Prominence UFLC XR (Shimadzu Corporation).
Analytes were separated by gradient elution using a Shim-pack XR-ODS II (2 x 75 mm, 2.2μm, Shimadzu Corporation) that was thermostated at 40 °C. HPLC mobile phase A was 5 mM ammonium acetate containing 0.2% formic acid in water (pH unadjusted); mobile phase B was […]
hold for 1.5 min, before transitioning to 10% B over 0.1 min. The column was re-equilibrated (0.9 min) before the next sample injection. The total run time was 4.0 min, and the HPLC flow rate was 0.5 ml/min. The source temperature was set at 600 °C, and mass spectral analyses were performed using a Turbo-Ion spray source in positive ionization mode and using multiple-reaction

[2] = target: T1, TREK-1 (Homo sapiens, UniProt O95069); assay: human 86Rb flux K2P selectivity panel; type: cell-based; settings: data is not shown
T1 sequence (O95069 1-426): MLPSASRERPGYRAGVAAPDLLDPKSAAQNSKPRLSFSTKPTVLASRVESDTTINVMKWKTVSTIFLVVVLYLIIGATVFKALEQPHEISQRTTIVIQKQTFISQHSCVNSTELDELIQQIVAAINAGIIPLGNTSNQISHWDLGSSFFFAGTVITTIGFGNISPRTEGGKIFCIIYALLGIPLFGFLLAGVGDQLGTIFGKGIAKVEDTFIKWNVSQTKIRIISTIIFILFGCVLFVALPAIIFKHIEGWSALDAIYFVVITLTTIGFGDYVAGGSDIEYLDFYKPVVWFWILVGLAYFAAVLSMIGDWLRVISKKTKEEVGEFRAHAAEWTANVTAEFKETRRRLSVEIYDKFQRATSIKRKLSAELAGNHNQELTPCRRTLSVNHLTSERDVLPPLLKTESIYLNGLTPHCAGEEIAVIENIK

[3] = target: Dopamine D3 (Homo sapiens, UniProt P35462); assay: Eurofins Lead Profiling radioligand binding; settings: title: 30 μM
[4] = system: GABAA, Flunitrazepam, Central; assay: Eurofins Lead Profiling radioligand binding; set-up: species or system Rat; settings: title: 30 μM
[5] = system: Glutamate, NMDA, Agonism; assay: Eurofins Lead Profiling radioligand binding; set-up: species or system Rat; settings: title: 30 μM
[6] = system: Purinergic P2Y, Non-Selective; assay: Eurofins Lead Profiling radioligand binding; set-up: species or system Rat; settings: title: 30 μM
[7] = target: Serotonin (5-HT2B) (Homo sapiens, UniProt P41595); assay: Eurofins Lead Profiling radioligand binding; settings: title: 30 μM
[8] = target: T2, hCav1.2 (Homo sapiens, UniProt Q13936); assay: Cav1.2 calcium flux assay; type: cell-based; settings: Ca2+ flux assay
T2 construct: host or cells: CHO
Description: % inhibition = 100 - (ΔRatio of test compound - ΔRatio of 1 µM control compound)/(ΔRatio of 0.3% DMSO - ΔRatio of 1 µM control compound)x100
Cav1.2 calcium flux assay protocol
CHO cells stably expressing human Cav1.2/b2/a2/d1 hCav1.2/CHO were purchased from ChanTest. hCav1.2/CHO were plated in 384-well plates at a density of 1.0x10^4 cells/well, and cultured overnight. After the wash by HBSS + 20 mM HEPES buffer, cells were loaded with Fluo-4 dye for 1 hour at room temperature. After the wash by HBSS + 20mM HEPES buffer, the fluorescent intensity was measured by Panoptic and test compounds, control compounds (verapamil) or 0.3% DMSO were added to each well. The change of fluorescent intensity (ΔRatio) and % inhibition to compare the efficacy and potency of test compounds were calculated using the […]
ΔRatio = (fluorescent intensity at 300 seconds after compound addition)/(average of fluorescent […]
% inhibition = 100 - (ΔRatio of test compound - ΔRatio of 10 µM control compound)/(ΔRatio of 0.3% DMSO - ΔRatio of 10 µM control compound)x100
In vitro Plasma protein binding and Brain homogenate binding: Determination of fraction unbound (f u) in plasma was conducted in vitro via equilibrium dialysis using HTDialysis (HTD) membrane plates. The top half of the plate was filled with 100 uL of Dubelco’s Phosphate Buffered Saline, pH 7.4 (DPBS). […]

T2 sequence (Q13936 whole entry): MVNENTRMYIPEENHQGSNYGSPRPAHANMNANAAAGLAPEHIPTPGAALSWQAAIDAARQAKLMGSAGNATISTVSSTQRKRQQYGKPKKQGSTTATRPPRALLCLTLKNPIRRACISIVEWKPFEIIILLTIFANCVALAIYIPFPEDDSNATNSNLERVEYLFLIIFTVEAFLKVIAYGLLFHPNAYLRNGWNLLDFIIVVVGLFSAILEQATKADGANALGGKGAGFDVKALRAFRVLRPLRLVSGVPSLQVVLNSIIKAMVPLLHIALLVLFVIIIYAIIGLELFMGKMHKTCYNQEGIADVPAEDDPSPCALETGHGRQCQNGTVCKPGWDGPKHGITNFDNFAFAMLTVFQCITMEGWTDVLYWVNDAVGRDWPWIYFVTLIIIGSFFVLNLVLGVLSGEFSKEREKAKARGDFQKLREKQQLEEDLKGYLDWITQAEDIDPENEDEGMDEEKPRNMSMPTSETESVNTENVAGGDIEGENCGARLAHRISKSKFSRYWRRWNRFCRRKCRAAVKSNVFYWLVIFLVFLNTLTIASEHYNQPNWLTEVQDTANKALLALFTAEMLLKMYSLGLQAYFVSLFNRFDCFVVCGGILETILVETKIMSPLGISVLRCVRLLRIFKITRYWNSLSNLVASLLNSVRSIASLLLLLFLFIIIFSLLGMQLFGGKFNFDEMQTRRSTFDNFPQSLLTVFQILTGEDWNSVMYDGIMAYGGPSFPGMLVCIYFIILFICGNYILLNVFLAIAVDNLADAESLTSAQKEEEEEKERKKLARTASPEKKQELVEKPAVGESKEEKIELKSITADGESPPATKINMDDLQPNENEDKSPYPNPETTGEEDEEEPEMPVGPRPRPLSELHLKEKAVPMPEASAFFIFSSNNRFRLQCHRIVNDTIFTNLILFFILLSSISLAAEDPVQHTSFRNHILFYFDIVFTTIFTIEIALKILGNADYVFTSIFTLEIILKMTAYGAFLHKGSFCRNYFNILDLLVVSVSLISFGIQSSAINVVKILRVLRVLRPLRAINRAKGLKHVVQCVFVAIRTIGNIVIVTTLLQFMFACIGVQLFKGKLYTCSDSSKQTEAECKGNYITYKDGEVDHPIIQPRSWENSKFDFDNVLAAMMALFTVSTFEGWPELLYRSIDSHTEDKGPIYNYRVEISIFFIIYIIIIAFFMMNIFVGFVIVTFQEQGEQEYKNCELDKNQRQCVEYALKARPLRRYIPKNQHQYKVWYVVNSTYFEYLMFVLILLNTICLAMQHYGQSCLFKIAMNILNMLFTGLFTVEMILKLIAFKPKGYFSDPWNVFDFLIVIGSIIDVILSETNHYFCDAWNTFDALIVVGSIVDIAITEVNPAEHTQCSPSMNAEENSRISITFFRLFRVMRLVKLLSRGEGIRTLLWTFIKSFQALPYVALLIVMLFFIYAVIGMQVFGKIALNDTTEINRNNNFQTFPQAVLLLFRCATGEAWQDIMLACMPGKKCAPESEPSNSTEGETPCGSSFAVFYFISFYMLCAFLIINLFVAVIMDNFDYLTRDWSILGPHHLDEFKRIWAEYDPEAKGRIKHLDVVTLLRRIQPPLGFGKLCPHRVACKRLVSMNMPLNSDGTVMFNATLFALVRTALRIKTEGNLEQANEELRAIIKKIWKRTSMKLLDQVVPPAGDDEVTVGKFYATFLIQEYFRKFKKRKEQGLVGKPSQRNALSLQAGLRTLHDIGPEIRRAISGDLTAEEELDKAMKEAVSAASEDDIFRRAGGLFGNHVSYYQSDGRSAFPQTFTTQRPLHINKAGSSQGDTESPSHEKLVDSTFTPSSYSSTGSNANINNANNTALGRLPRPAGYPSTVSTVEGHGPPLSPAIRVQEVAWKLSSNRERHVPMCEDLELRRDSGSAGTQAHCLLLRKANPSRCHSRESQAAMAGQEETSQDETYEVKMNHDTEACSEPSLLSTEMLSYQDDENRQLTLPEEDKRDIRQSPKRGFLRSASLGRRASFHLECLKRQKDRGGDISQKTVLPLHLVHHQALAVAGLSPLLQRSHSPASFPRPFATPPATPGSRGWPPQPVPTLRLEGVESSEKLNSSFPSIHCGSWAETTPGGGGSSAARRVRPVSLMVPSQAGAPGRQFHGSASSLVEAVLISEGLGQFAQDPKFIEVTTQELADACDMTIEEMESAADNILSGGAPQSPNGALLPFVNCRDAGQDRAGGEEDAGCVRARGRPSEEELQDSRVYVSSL
T2 sequence (Q08289 whole entry partner): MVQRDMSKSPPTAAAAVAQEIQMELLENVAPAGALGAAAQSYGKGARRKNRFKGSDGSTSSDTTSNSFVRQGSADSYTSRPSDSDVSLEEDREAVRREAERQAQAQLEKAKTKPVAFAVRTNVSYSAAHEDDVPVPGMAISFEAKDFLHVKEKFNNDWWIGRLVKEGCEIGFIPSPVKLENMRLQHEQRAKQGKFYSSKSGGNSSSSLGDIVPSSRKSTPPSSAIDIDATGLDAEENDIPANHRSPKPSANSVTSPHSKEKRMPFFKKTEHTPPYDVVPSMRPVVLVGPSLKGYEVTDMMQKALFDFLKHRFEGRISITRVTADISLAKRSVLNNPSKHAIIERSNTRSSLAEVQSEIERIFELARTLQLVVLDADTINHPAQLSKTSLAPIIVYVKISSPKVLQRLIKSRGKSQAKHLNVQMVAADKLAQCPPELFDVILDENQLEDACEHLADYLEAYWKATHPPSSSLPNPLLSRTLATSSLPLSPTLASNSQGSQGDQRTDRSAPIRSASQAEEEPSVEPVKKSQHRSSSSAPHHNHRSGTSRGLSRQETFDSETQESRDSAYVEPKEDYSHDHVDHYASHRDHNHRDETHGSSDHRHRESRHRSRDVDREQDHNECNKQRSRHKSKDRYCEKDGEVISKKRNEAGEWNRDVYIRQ
T2 sequence (P54289 25-956 partner limits assumed): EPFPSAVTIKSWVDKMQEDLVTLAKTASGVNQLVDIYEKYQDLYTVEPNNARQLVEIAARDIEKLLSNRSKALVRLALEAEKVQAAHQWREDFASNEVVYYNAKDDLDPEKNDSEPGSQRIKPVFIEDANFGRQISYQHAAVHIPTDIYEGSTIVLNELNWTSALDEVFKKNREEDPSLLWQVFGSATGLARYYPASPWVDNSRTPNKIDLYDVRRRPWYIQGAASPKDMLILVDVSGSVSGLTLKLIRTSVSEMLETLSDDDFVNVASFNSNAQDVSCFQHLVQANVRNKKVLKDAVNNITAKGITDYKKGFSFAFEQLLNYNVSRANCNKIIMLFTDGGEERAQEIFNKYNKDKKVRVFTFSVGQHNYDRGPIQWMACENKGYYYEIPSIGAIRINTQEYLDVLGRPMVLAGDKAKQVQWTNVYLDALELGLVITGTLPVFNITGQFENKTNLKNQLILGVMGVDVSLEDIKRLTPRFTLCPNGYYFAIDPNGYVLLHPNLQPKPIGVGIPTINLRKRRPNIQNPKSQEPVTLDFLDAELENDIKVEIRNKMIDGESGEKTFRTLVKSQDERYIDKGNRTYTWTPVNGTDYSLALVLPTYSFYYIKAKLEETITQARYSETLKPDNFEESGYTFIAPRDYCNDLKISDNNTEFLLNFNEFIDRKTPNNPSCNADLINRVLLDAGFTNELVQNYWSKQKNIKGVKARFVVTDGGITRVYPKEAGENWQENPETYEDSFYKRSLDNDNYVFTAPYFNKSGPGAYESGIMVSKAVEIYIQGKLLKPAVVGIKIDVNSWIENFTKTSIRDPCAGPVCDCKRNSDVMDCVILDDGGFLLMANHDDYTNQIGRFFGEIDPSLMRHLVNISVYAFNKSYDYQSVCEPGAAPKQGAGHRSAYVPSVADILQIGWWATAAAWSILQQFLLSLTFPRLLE
T2 sequence (P54289 957-1103 partner limits assumed): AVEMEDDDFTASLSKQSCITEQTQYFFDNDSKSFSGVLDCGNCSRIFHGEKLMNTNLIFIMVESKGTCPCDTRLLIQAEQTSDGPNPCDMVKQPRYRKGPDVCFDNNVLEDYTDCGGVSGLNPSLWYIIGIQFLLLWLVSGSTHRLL
Dopamine D3, sequence (P35462 whole entry): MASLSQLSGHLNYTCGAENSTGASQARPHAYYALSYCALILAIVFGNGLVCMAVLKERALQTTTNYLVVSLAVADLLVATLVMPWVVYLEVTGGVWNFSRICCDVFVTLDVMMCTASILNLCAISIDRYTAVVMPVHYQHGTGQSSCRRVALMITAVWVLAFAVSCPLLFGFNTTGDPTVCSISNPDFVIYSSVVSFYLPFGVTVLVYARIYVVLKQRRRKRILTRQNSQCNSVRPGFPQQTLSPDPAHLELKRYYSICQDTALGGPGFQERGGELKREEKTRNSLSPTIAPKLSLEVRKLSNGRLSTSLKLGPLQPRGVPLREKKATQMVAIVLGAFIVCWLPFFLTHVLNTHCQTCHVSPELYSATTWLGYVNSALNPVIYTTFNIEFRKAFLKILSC
Serotonin (5-HT2B), sequence (P41595 whole entry): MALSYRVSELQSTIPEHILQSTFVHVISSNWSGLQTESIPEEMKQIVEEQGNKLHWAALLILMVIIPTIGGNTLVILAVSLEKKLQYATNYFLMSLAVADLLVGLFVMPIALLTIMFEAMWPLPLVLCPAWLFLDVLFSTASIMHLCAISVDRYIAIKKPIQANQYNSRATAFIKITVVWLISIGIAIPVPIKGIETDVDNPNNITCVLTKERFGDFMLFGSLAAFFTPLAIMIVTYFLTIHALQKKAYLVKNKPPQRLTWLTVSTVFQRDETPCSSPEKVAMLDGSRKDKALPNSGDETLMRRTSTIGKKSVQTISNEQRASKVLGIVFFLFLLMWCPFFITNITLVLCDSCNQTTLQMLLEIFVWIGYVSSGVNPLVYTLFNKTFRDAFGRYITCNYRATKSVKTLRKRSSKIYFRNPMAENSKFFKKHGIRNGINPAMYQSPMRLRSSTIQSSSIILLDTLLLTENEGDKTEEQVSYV

| SMILES | concentration at 2 h ([1]; brain, 2 h, read-out: total brain concentration) [nM] | concentration at 24 h ([1]; brain, 24 h, read-out: total brain concentration) [nM] | Cmax ([1]; plasma) [nM] | Tmax ([1]; plasma) [h] | half-life ([1]; plasma) [h] | activity at TREK-1 in 86Rb flux panel [2] | inhibition [3] [%] | % Inhibition at 10 µM [4] [%] | % Inhibition at 10 µM [5] [%] | % Inhibition at 10 µM [6] [%] | inhibition [7] [%] | IC50 [8] [µM] |
| --- | --- | --- | --- | --- | --- | --- | --- | --- | --- | --- | --- | --- |
| O=C(NCc1ccc(OC(F)(F)F)cc1F)c1ccc2ncnn2c1 [Compound 19b] | 2680 | 2890 | 10300 | 7 | > 24 | micromolar activity | 13 | 0 | -3 | -7 | 14 | – |
| O=C(NCc1ccc(OC(F)(F)F)cc1Cl)c1ccc2nncn2c1 [Compound 20] | – | – | – | – | – | – | – | – | – | – | – | > 30 |
